Holding throughout (assay type): functional
For one assay, the system named is Bacillus subtilis. Briefly: Antibacterial activity against Bacillus subtilis assessed as reduction in pathogen growth.
In the next assay the test system is Escherichia coli. Briefly: Antibacterial activity against Escherichia coli assessed as reduction in pathogen growth.
The test system of a further assay is Staphylococcus aureus. Briefly: Antibacterial activity against Staphylococcus aureus assessed as reduction in pathogen growth.

The source of these data is ChEMBL document CHEMBL5223111, “Total synthesis and antibacterial evaluation of Empetroxepins A and B and related analogs” (2022).

In brackets after ≈: the same amount, converted by molar mass. Where only a bound is given, the exact number is not on record here.

For the molecule `COc1c(O)cc2c(c1O)Oc1ccc(NCc3ccccc3)cc1CC2`, the MIC – broadly, the lowest concentration found to suppress growth – with Bacillus subtilis is 64 µg/mL (≈ 176 µM); with Escherichia coli it was > 256 µg/mL; with Staphylococcus aureus it was 64 µg/mL (≈ 176 µM).

Regarding `COc1ccc2c(c1)CCc1cc(O)c(OC)c(O)c1O2`, the MIC is 128 µg/mL (≈ 444 µM) with Bacillus subtilis, > 256 µg/mL in the assay on Escherichia coli and 128 µg/mL (≈ 444 µM) with Staphylococcus aureus.

Consider `COc1cc2c(c(OC)c1OC)Oc1ccccc1CC2`, for which the MIC in the assay with Bacillus subtilis, in the assay on Escherichia coli and in the assay with Staphylococcus aureus was > 256 µg/mL in each case.

With `COc1c(O)cc2c(c1OC)Oc1ccc(Br)cc1CC2`, the MIC in the assay on Bacillus subtilis was 16 µg/mL (≈ 45.6 µM); with Escherichia coli it was > 256 µg/mL; in the assay with Staphylococcus aureus it was 16 µg/mL (≈ 45.6 µM).

As to `CCN(CC)c1ccc2c(c1)CCc1cc(O)c(OC)c(O)c1O2`, the MIC in the assay on Bacillus subtilis is 64 µg/mL (≈ 194 µM); in the assay with Escherichia coli it was > 256 µg/mL; in the assay with Staphylococcus aureus, 64 µg/mL (≈ 194 µM).

On to `COc1c(O)cc2c(c1O)Oc1ccc(O)cc1CC2`, for which the MIC was 256 µg/mL (≈ 933 µM) in the assay on Bacillus subtilis, > 256 µg/mL with Escherichia coli and 256 µg/mL (≈ 933 µM) in the assay with Staphylococcus aureus.

For `COc1cc2c(c(OC)c1OC)Oc1ccc(Cl)cc1CC2`, the minimum inhibitory concentration (MIC) in the assay on Bacillus subtilis, in the assay with Escherichia coli and in the assay on Staphylococcus aureus was > 256 µg/mL throughout.

`COC(=O)c1ccccc1-c1ccc2c(c1)CCc1cc(OC)c(OC)c(OC)c1O2`: the MIC in the assay with Bacillus subtilis, in the assay on Escherichia coli and with Staphylococcus aureus was > 256 µg/mL each time.

Consider `COc1c(O)cc2c(c1O)Oc1ccc(-c3ccccc3)cc1CC2`, for which the MIC in the assay on Bacillus subtilis is 16 µg/mL (≈ 47.9 µM); with Escherichia coli it was > 256 µg/mL; with Staphylococcus aureus, 16 µg/mL (≈ 47.9 µM).

With `Oc1cc2c(c(O)c1O)Oc1cccc(Cl)c1CC2`, the MIC with Bacillus subtilis worked out at 16 µg/mL (≈ 57.4 µM); in the assay on Escherichia coli, 256 µg/mL (≈ 919 µM); in the assay on Staphylococcus aureus it was 8 µg/mL (≈ 28.7 µM).

`COc1cc2c(c(OC)c1OC)Oc1cccc(Cl)c1CC2`: the MIC in the assay on Bacillus subtilis, in the assay on Escherichia coli and in the assay with Staphylococcus aureus was > 256 µg/mL in each case.

For `COc1cc2c(c(OC)c1OC)Oc1ccc(Nc3ccccc3)cc1CC2`, the MIC in the assay on Bacillus subtilis, with Escherichia coli and with Staphylococcus aureus was > 256 µg/mL each time.

`COc1c(O)cc2c(c1O)Oc1ccc(Br)cc1CC2`: the MIC is 16 µg/mL (≈ 47.5 µM) with Bacillus subtilis, > 256 µg/mL with Escherichia coli and 16 µg/mL (≈ 47.5 µM) in the assay on Staphylococcus aureus.

In the case of `COc1cc2c(c(OC)c1OC)Oc1ccc(N)cc1CC2`, the MIC in the assay with Bacillus subtilis, with Escherichia coli and in the assay with Staphylococcus aureus was > 256 µg/mL each time.

As for `COc1ccc2c(c1)CCc1cc(OC)c(OC)c(OC)c1O2`, the MIC in the assay on Bacillus subtilis, with Escherichia coli and in the assay on Staphylococcus aureus was > 256 µg/mL in each case.

Consider `Oc1cc2c(c(O)c1O)Oc1ccc(Br)cc1CC2`, for which the MIC in the assay on Bacillus subtilis is 8 µg/mL (≈ 24.8 µM); in the assay on Escherichia coli it was > 256 µg/mL; with Staphylococcus aureus, 16 µg/mL (≈ 49.5 µM).

`COc1cc2c(c(O)c1OC)Oc1ccc(Br)cc1CC2`: the MIC was 32 µg/mL (≈ 91.1 µM) with Bacillus subtilis, > 256 µg/mL in the assay with Escherichia coli and 32 µg/mL (≈ 91.1 µM) in the assay with Staphylococcus aureus.

Turning to `Oc1cc2c(c(O)c1O)Oc1c(Cl)cccc1CC2`, the values for the MIC in the assay on Bacillus subtilis, in the assay on Escherichia coli and in the assay on Staphylococcus aureus were 32 µg/mL (≈ 115 µM), > 256 µg/mL and 32 µg/mL (≈ 115 µM), respectively.

`COc1cc2c(c(OC)c1OC)Oc1ccc(C)cc1CC2`: the MIC with Bacillus subtilis, in the assay on Escherichia coli and with Staphylococcus aureus was > 256 µg/mL in each case.

Consider `Oc1cc2c(c(O)c1O)Oc1ccc(Cl)cc1CC2`, for which the MIC was 128 µg/mL (≈ 459 µM) in the assay with Bacillus subtilis, > 256 µg/mL in the assay with Escherichia coli and 64 µg/mL (≈ 230 µM) in the assay with Staphylococcus aureus.

With `COc1cc2c(c(OC)c1OC)Oc1ccc(NCc3ccccc3)cc1CC2`, the MIC in the assay with Bacillus subtilis, in the assay on Escherichia coli and in the assay with Staphylococcus aureus was > 256 µg/mL each time.

`CCN(CC)c1ccc2c(c1)CCc1cc(OC)c(OC)c(OC)c1O2`: the minimal inhibitory concentration (MIC) in the assay with Bacillus subtilis, in the assay on Escherichia coli and in the assay with Staphylococcus aureus was > 256 µg/mL throughout.

`COc1cc2c(c(OC)c1OC)Oc1ccc(N3CCOCC3)cc1CC2`: the MIC in the assay with Bacillus subtilis, with Escherichia coli and in the assay on Staphylococcus aureus was > 256 µg/mL throughout.

Turning to `COc1cc2c(c(OC)c1OC)Oc1c(Cl)cccc1CC2`, the minimum inhibitory concentration (MIC) in the assay on Bacillus subtilis, in the assay on Escherichia coli and with Staphylococcus aureus was > 256 µg/mL throughout.

Consider `Oc1cc2c(c(O)c1O)Oc1ccccc1CC2`, for which the MIC was 128 µg/mL (≈ 524 µM) in the assay on Bacillus subtilis, > 256 µg/mL with Escherichia coli and 64 µg/mL (≈ 262 µM) in the assay with Staphylococcus aureus.

For `Cc1ccc2c(c1)CCc1cc(O)c(O)c(O)c1O2`, the MIC was found to be 32 µg/mL (≈ 124 µM) in the assay on Bacillus subtilis, 256 µg/mL (≈ 991 µM) with Escherichia coli and 16 µg/mL (≈ 61.9 µM) in the assay with Staphylococcus aureus.

For the molecule `COc1c(O)cc2c(c1OC)Oc1ccccc1CC2`, the MIC was 256 µg/mL (≈ 940 µM) with Bacillus subtilis, > 256 µg/mL in the assay with Escherichia coli and 256 µg/mL (≈ 940 µM) with Staphylococcus aureus.

Take `COc1ccc(-c2ccc3c(c2)CCc2cc(OC)c(OC)c(OC)c2O3)cc1`: the MIC in the assay with Bacillus subtilis, in the assay on Escherichia coli and with Staphylococcus aureus was > 256 µg/mL each time.

Take `COc1cc2c(c(OC)c1OC)Oc1ccc(N3CCCCC3)cc1CC2`: the MIC with Bacillus subtilis, in the assay with Escherichia coli and in the assay on Staphylococcus aureus was > 256 µg/mL in each case.

On to `O=C(N[C@H](CO)[C@H](O)c1ccc([N+](=O)[O-])cc1)C(Cl)Cl` [CHLORAMPHENICOL], for which the MIC with Bacillus subtilis came out at 4 µg/mL (≈ 12.4 µM); in the assay with Escherichia coli it was 8 µg/mL (≈ 24.8 µM); in the assay on Staphylococcus aureus, 8 µg/mL (≈ 24.8 µM).

Consider `COc1cc2c(c(OC)c1OC)Oc1ccc(-c3ccccc3)cc1CC2`, for which the minimal inhibitory concentration (MIC) with Bacillus subtilis, in the assay on Escherichia coli and in the assay on Staphylococcus aureus was > 256 µg/mL throughout.

Consider `COc1c(O)cc2c(c1O)Oc1ccc(N3CCCCC3)cc1CC2`, for which the MIC is 64 µg/mL (≈ 187 µM) in the assay with Bacillus subtilis, > 256 µg/mL with Escherichia coli and 128 µg/mL (≈ 375 µM) with Staphylococcus aureus.

In the case of `COc1c(O)cc2c(c1O)Oc1ccc(Nc3ccccc3)cc1CC2`, the minimal inhibitory concentration (MIC) in the assay with Bacillus subtilis was 32 µg/mL (≈ 91.6 µM); with Escherichia coli, > 256 µg/mL; with Staphylococcus aureus, 32 µg/mL (≈ 91.6 µM).

For the molecule `COc1cc2c(c(OC)c1OC)Oc1ccc(Br)cc1CC2`, the MIC with Bacillus subtilis, in the assay with Escherichia coli and with Staphylococcus aureus was > 256 µg/mL throughout.

With `COc1c(O)cc2c(c1O)Oc1ccccc1CC2`, the results for the MIC with Bacillus subtilis, in the assay on Escherichia coli and with Staphylococcus aureus were 256 µg/mL (≈ 991 µM), > 256 µg/mL and 256 µg/mL (≈ 991 µM), respectively.

Consider `COc1cc2c(c(O)c1OC)Oc1ccccc1CC2`, for which the MIC with Bacillus subtilis is 256 µg/mL (≈ 940 µM); with Escherichia coli, > 256 µg/mL; in the assay with Staphylococcus aureus, > 256 µg/mL.

Consider `COc1c(O)cc2c(c1O)Oc1ccc(N3CCOCC3)cc1CC2`, for which the MIC in the assay with Bacillus subtilis was 256 µg/mL (≈ 746 µM); in the assay on Escherichia coli it was > 256 µg/mL; with Staphylococcus aureus, 256 µg/mL (≈ 746 µM).
